Source: article PMC9214071 (Acta Pharmaceutica Sinica. B, 2022)
Several values for one entry are separate records, joined by “and”; a condition that tells them apart may be missing. Equal values may be shown once. Read-outs that look alike come from different tables or passages of the source. Marks after values point to notes of the source that are not given here.

Key:
PAK4 [1] = biological target: T1, PAK4 (Homo sapiens, UniProt O96013); assay: PAK4 HTRF assay; format: biochemical; details: for LE: Ligand efficiency = (−1.4 Log Ki)/(n heavy atoms); for LE / Ki / LLE: PAK4 Ki; for Ki: HTRF, average of two independent experiments; for LLE: Ligand lipophilicity efficiency = (−Log Ki) − (cLogP)
T1 sequence (O96013 whole entry): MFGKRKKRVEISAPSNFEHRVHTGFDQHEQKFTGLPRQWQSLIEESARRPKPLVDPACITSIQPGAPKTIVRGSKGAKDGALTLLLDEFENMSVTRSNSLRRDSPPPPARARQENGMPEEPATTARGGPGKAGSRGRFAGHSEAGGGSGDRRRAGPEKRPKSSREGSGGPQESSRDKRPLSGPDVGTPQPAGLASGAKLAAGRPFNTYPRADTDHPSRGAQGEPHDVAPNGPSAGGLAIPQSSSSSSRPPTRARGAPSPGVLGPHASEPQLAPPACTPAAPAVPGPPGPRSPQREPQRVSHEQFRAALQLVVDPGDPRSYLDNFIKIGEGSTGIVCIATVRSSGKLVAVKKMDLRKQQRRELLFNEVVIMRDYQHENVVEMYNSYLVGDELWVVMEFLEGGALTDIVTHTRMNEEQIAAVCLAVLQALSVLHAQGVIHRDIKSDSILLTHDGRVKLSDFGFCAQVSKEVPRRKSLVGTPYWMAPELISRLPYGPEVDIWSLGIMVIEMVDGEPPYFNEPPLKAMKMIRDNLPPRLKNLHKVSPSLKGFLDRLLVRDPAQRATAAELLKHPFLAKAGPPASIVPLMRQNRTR

in vitro = details: CD-1, mouse, mouse liver microsomes, pH 7.4
[2] = Liver microsomal stability assay, MLM
PAK1 = PAK1 (Homo sapiens, UniProt Q13153); assay: PAK1 FRET-based Z'-Lyte assay; format: biochemical
PAK1, sequence (Q13153 whole entry): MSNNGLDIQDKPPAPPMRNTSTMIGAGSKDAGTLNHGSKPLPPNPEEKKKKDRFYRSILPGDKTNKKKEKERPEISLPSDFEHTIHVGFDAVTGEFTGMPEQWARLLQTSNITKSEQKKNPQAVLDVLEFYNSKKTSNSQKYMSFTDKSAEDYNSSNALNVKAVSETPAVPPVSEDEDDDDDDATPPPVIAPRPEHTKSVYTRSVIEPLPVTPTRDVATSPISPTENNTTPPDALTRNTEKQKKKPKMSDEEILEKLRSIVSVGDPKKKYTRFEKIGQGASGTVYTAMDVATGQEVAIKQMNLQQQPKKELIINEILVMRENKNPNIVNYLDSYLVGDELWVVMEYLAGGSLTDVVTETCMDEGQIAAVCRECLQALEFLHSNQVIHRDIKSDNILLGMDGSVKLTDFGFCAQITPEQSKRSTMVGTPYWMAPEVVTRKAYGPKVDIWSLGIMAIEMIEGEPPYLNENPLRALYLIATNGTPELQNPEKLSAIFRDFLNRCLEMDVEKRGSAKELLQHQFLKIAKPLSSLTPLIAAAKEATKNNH

A549 = assay: Wound-healing assay, A549 cell migration; format: cell-based, human; details: 20 μmol/L
PAK4 [3] = biological target: T1, PAK4; details: read-out: PAK4 Ki (reported); cited from earlier work
[4] = at least two duplicate experiments, SEM < ±20%

LE (PAK4 [1]) | Ki (PAK4 [1]) | Compound | further results
– | 593 nM | Nc1nccc(-n2cc(C(=O)NCc3ccccc3)c3ccc(C#CC4(O)CCCCC4)cc32)n1 [Compound 30] | –
– | 804 nM | Nc1nccc(-n2cc(C(=O)Nc3ccccc3)c3ccc(C#CC4(O)CCCCC4)cc32)n1 [Compound 31] | –
– | 243 nM | Nc1nccc(-n2cc(C(=O)Nc3nccs3)c3ccc(C#CC4(O)CCCCC4)cc32)n1 [Compound 32] | –
– | 239 nM | Nc1nccc(-n2cc(C(=O)Nc3cc[nH]n3)c3ccc(C#CC4(O)CCCCC4)cc32)n1 [Compound 33] | –
– | 94 nM | Nc1ccn(C(=O)c2cn(-c3ccnc(N)n3)c3cc(C#CC4(O)CCCCC4)ccc23)n1 [Compound 34] | –
– | 376 nM | Nc1nccc(-n2cc(C(=O)Nc3cc(O)[nH]n3)c3ccc(C#CC4(O)CCCCC4)cc32)n1 [Compound 35] | –
– | 119 nM | Nc1nccc(-n2cc(C(=O)N3CCOCC3)c3ccc(C#CC4(O)CCCCC4)cc32)n1 [Compound 37] | –
– | 38 nM | CN1CCN(C(=O)c2cn(-c3ccnc(N)n3)c3cc(C#CC4(O)CCCCC4)ccc23)CC1 [Compound 38] | –
– | 82 nM | CN(C)C(=O)c1cn(-c2ccnc(N)n2)c2cc(C#CC3(O)CCCCC3)ccc12 [Compound 39] | –
– | 44 nM | CNC(=O)c1cn(-c2ccnc(N)n2)c2cc(C#CC3(O)CCCCC3)ccc12 [Compound 40] | –
– | 14 nM | NC(=O)c1cn(-c2ccnc(N)n2)c2cc(C#CC3(O)CCCCC3)ccc12 [Compound 41] | half-life at 1 μmol/L (in vitro): 23.7 min; liver clearance [2]: 105.5 mL/min/kg
0.35 | 6.6 nM | Nc1nccc(-n2cc(C(=O)N3CCNCC3)c3ccc(C#CC4(O)CCCCC4)cc32)n1 [Compound 42] | LLE (PAK4 [1]): 4.97; fold increase of inhibitory capacity compared to 37 (PAK4 [1]; PAK4, relative to 37): 18 fold; Ki (PAK1; [4]): 4990 nM; A549, effect of compounds on the cell mobility (A549): 65% ^h
0.29 | 42.6 nM | Nc1nccc(-n2cc(C(=O)N3CCC(N)CC3)c3ccc(C#CC4(O)CCCCC4)cc32)n1 [Compound 43] | LLE (PAK4 [1]): 4.16; Ki (PAK1; [4]): 1610 nM
0.32 | 8.3 nM | Nc1nccc(-n2cc(C(=O)NC3CCNCC3)c3ccc(C#CC4(O)CCCCC4)cc32)n1 [Compound 44] | LLE (PAK4 [1]): 5.28; Ki (PAK1; [4]): 4240 nM
0.30 | 25.6 nM | Nc1nccc(-n2cc(C(=O)N3CCC[C@H](N)C3)c3ccc(C#CC4(O)CCCCC4)cc32)n1 [Compound 45, (S)-(3-Aminopiperidin-1-yl) (1-(2-aminopyrimidin-4-yl)-6-((1-hydroxycyclohexyl)ethynyl)-1H-indol-3-yl)methanone] | LLE (PAK4 [1]): 4.80; Ki (PAK1; [4]): 2370 nM
0.34 | 3.4 nM | Nc1nccc(-n2cc(C(=O)N3CCC[C@@H](N)C3)c3ccc(C#CC4(O)CCCCC4)cc32)n1 [Compound 47] | IC50 (PAK4 [1]): 6.3 nM; LLE (PAK4 [1]): 5.65; Ki (PAK1): 6990 nM; Ki (PAK1; [4]): 6990 nM
0.33 | 5.6 nM | Nc1nccc(-n2cc(C(=O)N[C@@H]3CCCNC3)c3ccc(C#CC4(O)CCCCC4)cc32)n1 [Compound 48] | LLE (PAK4 [1]): 5.42; Ki (PAK1; [4]): 7130 nM
0.27 | 207 nM | Nc1nccc(-n2cc(C(=O)N3CCC[C@@H](O)C3)c3ccc(C#CC4(O)CCCCC4)cc32)n1 [Compound 49] | LLE (PAK4 [1]): 4.12; factor of reduced activity relative to 47 (PAK4 [1]; PAK4, relative to 47): 60
0.31 | 27.2 nM | Nc1nccc(-n2cc(C(=O)N[C@H]3CCNC3)c3ccc(C#CC4(O)CCCCC4)cc32)n1 [Compound 50] | LLE (PAK4 [1]): 4.40
0.31 | 25.5 nM | Nc1nccc(-n2cc(C(=O)N3CC[C@@H](N)C3)c3ccc(C#CC4(O)CCCCC4)cc32)n1 [Compound 51] | LLE (PAK4 [1]): 4.42; Ki (PAK1; [4]): 6340 nM
0.31 | 30.9 nM | Nc1nccc(-n2cc(C(=O)N[C@@H]3CCNC3)c3ccc(C#CC4(O)CCCCC4)cc32)n1 [Compound 52] | LLE (PAK4 [1]): 5.48
0.31 | 22.7 nM | Nc1nccc(-n2cc(C(=O)N3CC[C@H](N)C3)c3ccc(C#CC4(O)CCCCC4)cc32)n1 [Compound 53] | LLE (PAK4 [1]): 4.47; Ki (PAK1; [4]): 2870 nM
0.27 | 148 nM | C[C@@H]1CN(C(=O)c2cn(-c3ccnc(N)n3)c3cc(C#CC4(O)CCCCC4)ccc23)CCN1 [Compound 54] | LLE (PAK4 [1]): 3.53; fold less potency than 55 against PAK4 (PAK4 [1]; relative to 55): approximately 14 fold
0.31 | 18.1 nM | Nc1nccc(-n2cc(C(=O)N3CCNC(=O)C3)c3ccc(C#CC4(O)CCCCC4)cc32)n1 [Compound 56, 4-(1-(2-Aminopyrimidin-4-yl)-6-((1-hydroxycyclohexyl)ethynyl)-1H-indole-3-carbonyl)piperazin-2-one] | LLE (PAK4 [1]): 5.17; Ki (PAK1; [4]): 4990 nM
– | 35 nM and 35.3 nM | COCCNc1nc2ccc(C#CC3(O)CCCCC3)cc2n1-c1ccnc(N)n1 [GNE-2861, reference compound] | Ki (PAK1; [4]): 3130 nM; Ki (PAK4 [3]): 3 nM

Second part, the compound before the results:

Compound | LE (PAK4 [1]) | Ki (PAK4 [1]) | further results
Nc1nccc(-n2ccc3ccc(C#CC4(O)CCCCC4)cc32)n1 [Compound 5] | 0.39 | 66 nM | –
Nc1nccc(-n2ccc3cc(F)c(C#CC4(O)CCCCC4)cc32)n1 [Compound 5a] | 0.38 | 82 nM | –
Nc1cc(-n2ccc3ccc(C#CC4(O)CCCCC4)cc32)nc(N)n1 [Compound 5b] | 0.33 | 370 nM | –
Nc1cc(-n2ccc3ccc(C#CC4(O)CCCCC4)cc32)ncn1 [Compound 5c] | 0.36 | 229 nM | –
Cc1cnc(N)nc1-n1ccc2ccc(C#CC3(O)CCCCC3)cc21 [Compound 5d] | 0.35 | 182 nM | –
Nc1nccc(-n2ncc3ccc(C#CC4(O)CCCCC4)cc32)n1 [Compound 6] | 0.40 | 40 nM | –
Nc1nccc(-n2ccc3ncc(C#CC4(O)CCCCC4)cc32)n1 [Compound 7] | 0.40 | 36 nM | –
Nc1nccc(-n2ccc3cnc(C#CC4(O)CCCCC4)cc32)n1 [Compound 8] | 0.42 | 13 nM | –
Nc1nccc(-n2ccc3ccc(C#CC4(O)CCCCC4)nc32)n1 [Compound 9] | 0.36 | 183 nM | –
OC1(C#Cc2ccc3ccn(-c4ccnc(NCc5ccccc5)n4)c3c2)CCCCC1 [Compound 10] | – | 623 nM | –
OC1(C#Cc2ccc3ccn(-c4ccnc(NCc5ccccc5F)n4)c3c2)CCCCC1 [Compound 11] | – | 223 nM | –
OC1(C#Cc2ccc3ccn(-c4ccnc(NCc5ccccc5Cl)n4)c3c2)CCCCC1 [Compound 12] | – | 355 nM | –
OC1(C#Cc2ccc3ccn(-c4ccnc(NCc5ccc(F)cc5)n4)c3c2)CCCCC1 [Compound 13] | – | 291 nM | –
OC1(C#Cc2ccc3ccn(-c4ccnc(NCc5cccs5)n4)c3c2)CCCCC1 [Compound 14] | – | 7450 nM | –
OC1(C#Cc2ccc3ccn(-c4ccnc(Nc5ccccc5)n4)c3c2)CCCCC1 [Compound 15] | – | 217 nM | –
OC1(C#Cc2ccc3ccn(-c4ccnc(Nc5cccc(Cl)c5)n4)c3c2)CCCCC1 [Compound 16] | – | 105 nM | –
O=[N+]([O-])c1cccc(Nc2nccc(-n3ccc4ccc(C#CC5(O)CCCCC5)cc43)n2)c1 [Compound 17] | – | 157 nM | –
N#Cc1cccc(Nc2nccc(-n3ccc4ccc(C#CC5(O)CCCCC5)cc43)n2)c1 [Compound 18] | – | 242 nM | –
Cc1cccc(Nc2nccc(-n3ccc4ccc(C#CC5(O)CCCCC5)cc43)n2)c1 [Compound 19] | – | 212 nM | –
OC1(C#Cc2ccc3ccn(-c4ccnc(Nc5ccccc5F)n4)c3c2)CCCCC1 [Compound 20] | – | 396 nM | –
OC1(C#Cc2ccc3ccn(-c4ccnc(Nc5ccccc5C(F)(F)F)n4)c3c2)CCCCC1 [Compound 21] | – | 173 nM | –
Cc1ccccc1Nc1nccc(-n2ccc3ccc(C#CC4(O)CCCCC4)cc32)n1 [Compound 22] | – | 709 nM | –
COc1ccc(Nc2nccc(-n3ccc4ccc(C#CC5(O)CCCCC5)cc43)n2)cc1 [Compound 24] | – | 298 nM | –
OC1(C#Cc2ccc3ccn(-c4ccnc(Nc5ccc(F)c(Cl)c5)n4)c3c2)CCCCC1 [Compound 25] | – | 189 nM | –
NS(=O)(=O)c1cccc(Nc2nccc(-n3ccc4ccc(C#CC5(O)CCCCC5)cc43)n2)c1 [Compound 26] | – | 83 nM | –
COCCNc1nccc(-n2ccc3ccc(C#CC4(O)CCCCC4)cc32)n1 [Compound 28] | – | 680 nM | –
CC(C)Nc1nccc(-n2ccc3ccc(C#CC4(O)CCCCC4)cc32)n1 [Compound 29] | – | 1110 nM | –
